Data on 20 compounds can be found in BindingDB's records for doi:10.1016/j.bmc.2019.05.024 (Charles University, 2019).

pKi: −log10 of the molar value.

The test in a line: Inhibition of influenza A virus chicken/Nakorn-Patom/Thailand/CU-K2-2004 Neuraminidase N1 at pH 7.4 by DIANA assay.
As for `CCC(CC)O[C@@H]1C=C(C(=O)O)C[C@H](NCc2cn(CCO)nn2)[C@H]1NC(C)=O`, the negative logarithm of the Ki (pKi) is 6.33.

With `CCC(CC)O[C@@H]1C=C(C(=O)O)C[C@H](NCc2cn(CC(=O)N(C)C)nn2)[C@H]1NC(C)=O`, the pKi is 5.51. Then `CCC(CC)O[C@@H]1C=C(C(=O)O)C[C@H](NCc2cn(CC(C)(CO)CO)nn2)[C@H]1NC(C)=O`, with 6.15; and `CCC(CC)O[C@@H]1C=C(C(=O)O)C[C@H](NCc2cn(CC(=O)NC)nn2)[C@H]1NC(C)=O`, with 6.13; and `CCC(CC)O[C@@H]1C=C(C(=O)O)C[C@H](n2cc(CNc3ccc(NC(C)=O)cc3)nn2)[C@H]1NC(C)=O`, with 5.25.

`CCC(CC)O[C@@H]1C=C(C(=O)O)C[C@H](NCc2cn(CC(=O)O)nn2)[C@H]1NC(C)=O`: the pKi was 5.37. `CCC(CC)O[C@@H]1C=C(C(=O)O)C[C@H](n2cc(CNc3ccccc3C(N)=O)nn2)[C@H]1NC(C)=O`: the pKi was 5.29. As for `CCC(CC)O[C@@H]1C=C(C(=O)O)C[C@H](NCc2cn(CCN3CCS(=O)(=O)CC3)nn2)[C@H]1NC(C)=O`, the figure is 5.21; as for `CCC(CC)O[C@@H]1C=C(C(=O)O)C[C@H](n2cc(CN(C)c3ccc(OC)cc3)nn2)[C@H]1NC(C)=O`, 5.09; as for `CCC(CC)O[C@@H]1C=C(C(=O)O)C[C@H](n2cc(CNc3cc(F)ccc3OC)nn2)[C@H]1NC(C)=O`, 4.96. Then `CCC(CC)O[C@@H]1C=C(C(=O)O)C[C@H](n2cc(COCC(C)(CO)CO)nn2)[C@H]1NC(C)=O`, with 4.31; and `CCC(CC)O[C@@H]1C=C(C(=O)O)C[C@H](n2cc(CNc3cccc(C(F)(F)F)c3)nn2)[C@H]1NC(C)=O`, with 5.72; and `CCC(CC)O[C@@H]1C=C(C(=O)O)C[C@H](n2cc(CNc3ccccc3)nn2)[C@H]1NC(C)=O`, with 5.30. `CCC(CC)O[C@@H]1C=C(C(=O)O)C[C@H](n2cc(-c3cccs3)nn2)[C@H]1NC(C)=O`: the pKi was 5.15. Then `CCC(CC)O[C@@H]1C=C(C(=O)O)C[C@H](n2cc(CO)nn2)[C@H]1NC(C)=O`, with 5.28; and `CCC(CC)O[C@H]1CC(C(=O)O)=C[C@@H](n2cc(CN3CCS(=O)(=O)CC3)nn2)[C@@H]1NC(C)=O`, with 4.03; and `CCC(CC)O[C@@H]1C=C(C(=O)O)C[C@H](n2cc(C[C@@]3(C(=O)O)CCCN3)nn2)[C@H]1NC(C)=O`, with 4.31. Then `CCC(CC)O[C@@H]1C=C(C(=O)O)C[C@H](n2cc(-c3ccsc3)nn2)[C@H]1NC(C)=O`, with 5.40. As for `CCC(CC)O[C@@H]1C=C(C(=O)O)C[C@H](n2cc(C[C@H](N)C(=O)O)nn2)[C@H]1NC(C)=O`, the figure is 4.60; as for `CCC(CC)O[C@@H]1C=C(C(=O)O)C[C@H](n2cc(CNc3ccc(C(N)=O)c(C(F)(F)F)c3)nn2)[C@H]1NC(C)=O`, 5.30.
